Results reported in patent US9434780B2, “Process for preparing human relaxin-2” (Relaxera Pharma GmbH & Co. KG i.G., priority 2011, dated 2016).
Where no end group is shown, it is not given here.

Assays:
human THP-1 cells = assay: cAMP assay in human THP-1 cells; format: cell-based; details: FIG. 6, compared with recombinant relaxin-2
cell models = assay: studies on cell models (bioassays); format: cell-based; details: compared with recombinant peptide
[1] = storage stability of lyophilized relaxin-2; format: physicochemical; details: 4° C., stored for several months, compared with fresh material
Method: The product is lyophilized for storage and stored at −20° C. The high stability of the preparation of highly pure relaxin-2 in lyophilized form at a temperature of 4° C. has been proven by corresponding analytics, in which fresh material was compared with material stored for several months.

cardiac fibroblasts = assay: cell model of myocardial hypertrophy; format: cell-based; details: inhibition of cardiac fibroblast differentiation into myofibroblasts and of growth factor secretion; compared with recombinant
Source text: In this model, relaxin inhibits the differentiation of cardiac fibroblasts into myofibroblasts and the secretion of growth factors by these cells (Dschietzig et al., 2006).

receptor RXFP1 = molecular target: T1, receptor RXFP1 (Homo sapiens, UniProt Q9HBX9); assay: displacement of europium-labeled relaxin-2 in HEK-293T cells expressing RXFP1; format: binding; details: HEK-293T cells expressing natural receptor RXFP1; compared with recombinant human relaxin-2
T1 construct: expressed in transfected cells; host or cells: HEK-293T
T1 sequence (Q9HBX9 1-757): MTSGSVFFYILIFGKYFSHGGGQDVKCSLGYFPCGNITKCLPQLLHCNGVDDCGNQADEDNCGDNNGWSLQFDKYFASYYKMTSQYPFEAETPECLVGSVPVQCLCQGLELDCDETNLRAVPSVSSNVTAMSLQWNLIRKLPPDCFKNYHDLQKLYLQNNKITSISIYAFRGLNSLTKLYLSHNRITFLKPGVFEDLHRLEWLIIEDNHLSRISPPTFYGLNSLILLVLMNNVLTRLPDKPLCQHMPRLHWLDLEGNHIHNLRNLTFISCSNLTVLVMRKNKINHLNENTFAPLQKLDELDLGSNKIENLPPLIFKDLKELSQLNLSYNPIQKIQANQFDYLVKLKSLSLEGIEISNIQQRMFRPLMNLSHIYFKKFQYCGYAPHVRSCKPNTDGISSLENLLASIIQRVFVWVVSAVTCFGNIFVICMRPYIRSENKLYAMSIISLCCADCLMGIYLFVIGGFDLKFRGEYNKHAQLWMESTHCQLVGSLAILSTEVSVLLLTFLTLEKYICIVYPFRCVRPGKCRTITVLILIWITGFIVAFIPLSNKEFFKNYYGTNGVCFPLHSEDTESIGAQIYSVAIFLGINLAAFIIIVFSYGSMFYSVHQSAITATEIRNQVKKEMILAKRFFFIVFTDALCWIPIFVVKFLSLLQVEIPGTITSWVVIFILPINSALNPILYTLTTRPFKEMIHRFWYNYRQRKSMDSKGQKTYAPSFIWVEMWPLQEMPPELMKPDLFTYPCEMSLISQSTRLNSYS

Substance | activity in cAMP assay (human THP-1 cells) | effect on cell models (cell models) | stability in lyophilized form [1] | potency in cell model of myocardial hypertrophy (cardiac fibroblasts) | potency in displacing europium-labeled relaxin-2 (receptor RXFP1)
AZ02: batch of relaxin-2 prepared by chemical synthesis (chain 1 ELYSALANKCCHVGCTKRSLARFC; chain 2 DSWMEEVIKLCGRELVRAQIAICGMSTWS; non-natural residues) | comparable to that of the recombinantly prepared relaxin-2 |  |  |  | 
human relaxin-2 [synthetic human relaxin-2] | equivalent bioactivities | excellent effect, comparable to that of the recombinant peptide | only minor amounts of metabolites appear | as potent as recombinant human relaxin-2 | same potency as recombinant human relaxin-2
recombinant human relaxin-2: recombinantly prepared human relaxin-2 used as comparator (chain 1 QLYSALANKCCHVGCTKRSLARFC; chain 2 DSWMEEVIKLCGRELVRAQIAICGMSTWS; not fully specified; ends and bridges not checked) [reference compound] | equivalent bioactivities |  |  |  | 
